Data set [1] in a line: Maximum soluble amount in cosmetic liquid of prescription example 1 (HPLC). The format is physicochemical. To be noted: 1.0% added to prescription example 1, insolubles filtered off (1-μm filter paper). How it is done:
Specifically, ubiquinone or ubiquinol was added in an amount corresponding to 1.0%. The resultant suspension was filtered through 1-μm filter paper, and thereby insolubles were removed. The cosmetic liquids B and C were thus prepared.
The final concentrations of ubiquinone and ubiquinol in the cosmetic liquids B and C were measured by HPLC similarly to Example 1, resulting in 0.011% and 0.023%, respectively.

A short description of data set [2]: Water solubility at normal temperature. Type of data set: physicochemical.
Data set [3] in a line: Maximum ubiquinone concentration in DMEM culture medium including 10% FBS (HPLC). The format is physicochemical. To be noted: DMEM with 10% FBS, 0.03% added, stirred 6 hours at room temperature, filtered.
Experimental: To a DMEM culture medium including 10% FBS, reagent ubiquinone was added in an amount corresponding to 0.03%. The mixture was stirred with a stirrer at room temperature for 6 hours. The mixture was filtered through a 0.02 µm filter, and a ubiquinone-containing culture medium was prepared.
Data set [4] can be described thus: Test of radical scavenging ability (H2-DCFDA fluorescence, AAPH). Type of data set: biochemical. To be noted: final concentration 0.006%, 30 minutes after AAPH addition, 37° C. How it is done:
The resultant solution was added to a 10 mM aqueous sodium hydroxide solution such that the concentration of the agent was 1 mM. The radical fluorescence detecting agent was hydrolyzed in the dark at room temperature for 60 minutes and was activated. The liquid was diluted with Dulbecco's phosphate buffered saline (PBS) to give a diluted liquid with a final concentration of 0.01 mM. […]-40 manufactured by Nihon Emulsion Co., Ltd.). […] The mixture thus prepared was used as a test liquid. A test liquid having a final ubiquinone concentration of 0.006% was prepared in the same manner using ubiquinone. A test liquid was prepared as described above except that the ubiquinone solution was replaced by the same volume of distilled water. This test liquid was used as a negative control. […] The mixture was heated to 37° C. After 30 minutes after the addition, the fluorescence intensity at an excitation wavelength of 495 nm and a fluorescence wavelength of 525 nm of the respective liquids was measured. The fluorescence suppression was obtained as radical scavenging ability of ubiquinone and potassium ubiquinol-1,4-diphosphate.

In data set [5] the test system is Normal human skin fibroblast cells NB1RGB. The settings on record: 3 days, 0.007 %.
Experimental: Normal human skin fibroblast cells NB1RGB (spared from RIKEN) were inoculated to a DMEM culture medium including 10% FBS on a 9 cm Petri dish such that the normal human skin fibroblast cells NB1RGB were approximately 1.0×10^5 in number per ml. The cells were cultured in a CO2 incubator at 37° C. for 7 days to reach confluent while the culture medium was exchanged every 3 days. […] After the culture, the cells were cleaned three times on the Petri dish each with 10 ml of PBS(−), and were released and recovered using trypsin/EDTA. The cells were then resuspended in 1 ml of PBS(−), and were quickly broken with a homogenizer. Insoluble matters were removed by centrifugal separation at 10000 rpm for 10 minutes, and 10 μl of the supernatant was subjected to HPLC. The remainder was combined with an equivalent amount of hexane, and these were sufficiently mixed together to give a turbid liquid. The turbid liquid was subjected to centrifugal separation at 10000 rpm for 3 minutes, and the resultant supernatant hexane layer was analyzed by HPLC.
Column: Shodex F-511A (manufactured by Showa Denko K.K)
Column temperature: 40° C.
Eluent: methanol/water/phosphoric acid=1000/5/1
Detection: photodiode array 210 nm-370 nm
In the HPLC analysis, ubiquinone used in Synthetic Example 1 and ubiquinol immediately after synthesized in Synthetic Example 1 were used as references. […]

For the molecule `COc1c(O)c(C)c(C/C=C(\C)CC/C=C(\C)CC/C=C(\C)CC/C=C(\C)CC/C=C(\C)CC/C=C(\C)CC/C=C(\C)CC/C=C(\C)CC/C=C(\C)CCC=C(C)C)c(O)c1OC` [ubiquinol], in data set [1], the “final concentration in the cosmetic liquid (maximum soluble amount)” value is listed as 0.023%.

As for `COC1=C(OC)C(=O)C(C/C=C(\C)CC/C=C(\C)CC/C=C(\C)CC/C=C(\C)CC/C=C(\C)CC/C=C(\C)CC/C=C(\C)CC/C=C(\C)CC/C=C(\C)CCC=C(C)C)=C(C)C1=O` [ubiquinone, 2,3-dimethoxy-5-methyl-6-polyprenyl-1,4-benzoquinone], the water solubility result in data set [2] is on record as “less than 100 ppm”. For the same molecule, in data set [3], the “ubiquinone concentration in the culture medium (probably the maximum)” value turned out to be 0.007%. Besides, the “final concentration in the cosmetic liquid (maximum soluble amount)” value in data set [1] was determined as 0.011%. Moreover, in data set [4], the “Fluorescence intensity (Ex 495/Em 525 nm: relative value)” value is reported as 13315 relative value and the “Radical scavenging ability (Fluorescence suppression (%))” value came to 41%. Also, the “Concentration in cells after culture: Ubiquinone” value in data set [5] was determined as 2000 ng/mL.

For “tetrapotassium ubiquinol-1,4-diphosphate”, in data set [4], the “Fluorescence intensity (Ex 495/Em 525 nm: relative value)” value is given as 5001 relative value and the “Radical scavenging ability (Fluorescence suppression (%))” value came out at 78%.
